According to patent publication EP1066315B1 (University of Dundee, priority 1998, dated 2008):
“Also recorded” adds a separate entry of the source. Non-standard residues stand in square brackets, D forms with d. Residues, ends and D or L forms follow the SMILES beside them. *: point of attachment. Sta = CC(C)C[C@H](N)[C@@H](O)CC(=O)O; Fmoc = O=C(OCC1c2ccccc2-c2ccccc21)*; Isovaleryl = CC(C)CC(=O)*

Legend:
[1] = tested on: Asparagine endopeptidase (AEP); experiment: AEP
[2] = target: T1, disrupted lysosomes isolated from the human B cell line EDR (TTCF processing activity) (Homo sapiens, UniProt Q99538); experiment: Digestion of TTCF by disrupted B cell lysosomes, SDS-PAGE readout; type: biochemical
T1 construct: disrupted lysosomes isolated from the human B cell line EDR; endogenous in cells; host or cells: human B cell line EDR, Percoll-gradient lysosomal fraction, disrupted
T1 sequence (Q99538 26-323 limits assumed): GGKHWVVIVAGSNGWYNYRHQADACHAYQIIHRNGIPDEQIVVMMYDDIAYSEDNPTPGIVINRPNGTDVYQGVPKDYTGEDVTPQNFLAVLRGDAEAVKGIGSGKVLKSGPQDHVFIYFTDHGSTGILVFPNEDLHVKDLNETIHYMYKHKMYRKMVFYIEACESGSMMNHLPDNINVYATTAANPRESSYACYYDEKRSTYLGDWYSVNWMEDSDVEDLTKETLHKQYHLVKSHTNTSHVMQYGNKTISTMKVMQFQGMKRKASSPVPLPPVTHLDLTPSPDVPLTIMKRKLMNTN
Experimental: (§1) The invention will now be described by reference to the following Examples and Figures wherein • Figure 1: Processing of TTCF by a leupeptin-insensitive cysteine endopeptidase activity. (a) TTCF was digested in vitro in the presence of disrupted lysosomes (1-2 µg) in the presence or absence of iodoacetamide (1 mM), leupeptin, E64 or pepstatin (each at 0.1 mg/ml). Digestions were in 0.1 M NH4 acetate at pH 4.5 or Na2HPO4, pH 6.0 or 7.0. After 4 hours at 37°C, the reactions were separated by Tris-tricine SDS-PAGE and stained with Coomassie Blue. (b) Cleavage sites: TTCF digestion products were separated by SDS PAGE and electrophoretically transferred to nitrocellulose membrane. Individual fragments numbered 1-6 were subjected to 5 cycles of Edman degradation. N-terminal sequence obtained is shown in bold following upstream residues from TTCF (tetanus toxin numbering). The N-terminal sequence of His-tagged TTCF was obtained for fragments 1 and 3. (c) Residues Asn 1184 and Glu 1184 in TTCF were mutated to alanine (see Methods) and digestions performed as before. The mutation abolishes cleavage at the mutated site but not at the first site (doublet at 47 kD). In this experiment cleavage of the third site was minimal. • Figure 2: TTCF is processed by an asparaginyl endopeptidase. (a) Chromatography of the TTCF processing activity on Mono-S resin. Fractions eluted by NaCl gradient were incubated with the substrates Z-Ala-Ala-Asn-NHMec or Z-Phe-Arg-NHMec in the presence or absence of E64 (trans-epoxysuccinyl-L-leucylamido-(4-guanidino)butane). […] (b) Fractions as above were incubated with 10 µg TTCF in the presence or absence of E64 for 4 hours at 37°C prior to SDS-PAGE analysis. (c) Each fraction was analysed by SDS-PAGE and Western blotting. Electrophoretically transferred material was probed with an affinity purified antiserum raised against the peptide KGIGSGKVLKSGPQC from human legumain^1. • Figure 3: Peptide inhibitors of AEP block asparaginyl endopeptidase activity and TTCF processing in vitro and in vivo. (a) TTCF was digested with purified AEP (legumain from pig kidney) in the presence or absence of 0.2 mg/ml of the peptides indicated. […] (b) Purified AEP or a crude lysosomal protease mixture were incubated with Z-Ala-Ala-Asn-NHMec, Z-Phe-Arg-NHMec (cathepsins L&B) or Z-Val-Val-Ala NHMec (cathepsin S) in the presence of increasing concentrations of AENK or AEQK. Release of 7-amino-4-methyl coumarin was measured after 10, 20 or 30 minutes. […] At different times the cells were washed, fixed in 0.05 % glutaraldehyde and co-cultured with autologous TTCF specific T cell clones. […] Proteins obtained from commercial sources, as described in the literature or custom peptides were digested with purified pig kidney legumain at pH 5.5 in the presence of 1 mM DTT. […] When present peptide was maintained during antigen pulsing at 1 mg/ml (a) or 2 mg/ml (b). At different times the cells were washed, fixed in 0.05 % glutaraldehyde and antigen presentation measured using proliferation of different autologous TTCF-specific T cell clones. c, AEP pre-processing of TTCF speeds antigen presentation. […] Presentation was measured after 60 minutes of antigen pulsing using EBV B cells.
[…]. […] Nor could we reproduce the lysosomal TTCF digestion pattern or indeed generate any of these fragments using purified cathepsins L, S, B, D or E , all of which have been implicated in the class II MHC antigen processing pathway (reviewed in refs 5 & 6).
TTCF processing activity. Lysosomal fractions from the human B cell line EDR were prepared on 27 % Percoll density gradients as previously described^8 using ^125I-labelled transferrin (internalised for 30 minutes at 37°C) and β-hexosaminidase to identify endosomal/plasma membrane and lysosomal fractions respectively. The peak of lysosomes was collected by centrifugation at 40,000 g for 1 hour, removed from the underlying Percoll pellet, collected again at 50,000 g for 1 hour and stored frozen. […]

[3] = Mono-S fractions of the partially purified TTCF processing activity from a crude B cell lysosome fraction; settings: human, 37°C, up to 4 hours
AEP = experiment: Purified AEP; settings: up to 30 minutes
[4] = tested on: purified AEP (legumain from pig kidney); experiment: Digestion of TTCF with purified AEP in the presence of tetrapeptides; type: biochemical; settings: 0.2 mg/ml peptide; Fig 3a
Experimental: The invention will now be described by reference to the following Examples and Figures wherein • Figure 1: Processing of TTCF by a leupeptin-insensitive cysteine endopeptidase activity. (a) TTCF was digested in vitro in the presence of disrupted lysosomes (1-2 µg) in the presence or absence of iodoacetamide (1 mM), leupeptin, E64 or pepstatin (each at 0.1 mg/ml). Digestions were in 0.1 M NH4 acetate at pH 4.5 or Na2HPO4, pH 6.0 or 7.0. After 4 hours at 37°C, the reactions were separated by Tris-tricine SDS-PAGE and stained with Coomassie Blue. (b) Cleavage sites: TTCF digestion products were separated by SDS PAGE and electrophoretically transferred to nitrocellulose membrane. Individual fragments numbered 1-6 were subjected to 5 cycles of Edman degradation. N-terminal sequence obtained is shown in bold following upstream residues from TTCF (tetanus toxin numbering). The N-terminal sequence of His-tagged TTCF was obtained for fragments 1 and 3. (c) Residues Asn 1184 and Glu 1184 in TTCF were mutated to alanine (see Methods) and digestions performed as before. The mutation abolishes cleavage at the mutated site but not at the first site (doublet at 47 kD). In this experiment cleavage of the third site was minimal. • Figure 2: TTCF is processed by an asparaginyl endopeptidase. (a) Chromatography of the TTCF processing activity on Mono-S resin. Fractions eluted by NaCl gradient were incubated with the substrates Z-Ala-Ala-Asn-NHMec or Z-Phe-Arg-NHMec in the presence or absence of E64 (trans-epoxysuccinyl-L-leucylamido-(4-guanidino)butane). […] (b) Fractions as above were incubated with 10 µg TTCF in the presence or absence of E64 for 4 hours at 37°C prior to SDS-PAGE analysis. (c) Each fraction was analysed by SDS-PAGE and Western blotting. Electrophoretically transferred material was probed with an affinity purified antiserum raised against the peptide KGIGSGKVLKSGPQC from human legumain^1. • Figure 3: Peptide inhibitors of AEP block asparaginyl endopeptidase activity and TTCF processing in vitro and in vivo. […] Release of 7-amino-4-methyl coumarin was measured after 10, 20 or 30 minutes. […] At different times the cells were washed, fixed in 0.05 % glutaraldehyde and antigen presentation measured using proliferation of different autologous TTCF-specific T cell clones. c, AEP pre-processing of TTCF speeds antigen presentation. […] Presentation was measured after 60 minutes of antigen pulsing using EBV B cells.
We decided to test the possibility that high concentrations of asparagine containing peptides might act as competitive inhibitors. […] To establish that inhibition of AEP was specific, we measured the hydrolysis of different synthetic peptide substrates in the presence and absence of these tetrapeptides.

[5] = tested on: peripheral blood mononuclear cells (PBMC) / autologous TTCF specific T cell clones; experiment: TTCF antigen presentation by PBMC, read out as proliferation of autologous T cell clones; type: cell-based, human; settings: PBMC, 1 mg/ml peptide, between 30 and 60 minutes of antigen pulsing; Fig 9a
Experimental: as §1
If AEP plays a role in TTCF processing in antigen presenting cells then sufficiently high levels of the competing AENK peptide might be expected to interfere with normal class II MHC loading of TTCF epitopes. Following a 15 minute preincubation with or without tetrapeptides, freshly isolated peripheral blood mononuclear cells (PBMC) were incubated with TTCF antigen in the continued presence or absence of the peptides. At different times, the cells were washed, fixed and then co-cultured with different autologous T cell clones to assess expression of different peptide/MHC complexes. […] At later times there was some recovery of presentation of these epitopes as expected for a competitive inhibitor. […]

[6] = tested on: EBV-transformed B cells / autologous TTCF-specific T cell clones; experiment: TTCF antigen presentation by EBV-transformed B cells, read out as proliferation of autologous T cell clones; type: cell-based, human; settings: EBV-B cells from donor, 2 mg/ml peptide; Fig 9b
Experimental: The invention will now be described by reference to the following Examples and Figures wherein • Figure 1: Processing of TTCF by a leupeptin-insensitive cysteine endopeptidase activity. (a) TTCF was digested in vitro in the presence of disrupted lysosomes (1-2 µg) in the presence or absence of iodoacetamide (1 mM), leupeptin, E64 or pepstatin (each at 0.1 mg/ml). Digestions were in 0.1 M NH4 acetate at pH 4.5 or Na2HPO4, pH 6.0 or 7.0. After 4 hours at 37°C, the reactions were separated by Tris-tricine SDS-PAGE and stained with Coomassie Blue. (b) Cleavage sites: TTCF digestion products were separated by SDS PAGE and electrophoretically transferred to nitrocellulose membrane. Individual fragments numbered 1-6 were subjected to 5 cycles of Edman degradation. N-terminal sequence obtained is shown in bold following upstream residues from TTCF (tetanus toxin numbering). The N-terminal sequence of His-tagged TTCF was obtained for fragments 1 and 3. (c) Residues Asn 1184 and Glu 1184 in TTCF were mutated to alanine (see Methods) and digestions performed as before. The mutation abolishes cleavage at the mutated site but not at the first site (doublet at 47 kD). In this experiment cleavage of the third site was minimal. • Figure 2: TTCF is processed by an asparaginyl endopeptidase. (a) Chromatography of the TTCF processing activity on Mono-S resin. Fractions eluted by NaCl gradient were incubated with the substrates Z-Ala-Ala-Asn-NHMec or Z-Phe-Arg-NHMec in the presence or absence of E64 (trans-epoxysuccinyl-L-leucylamido-(4-guanidino)butane). […] (c) Each fraction was analysed by SDS-PAGE and Western blotting. […] Release of 7-amino-4-methyl coumarin was measured after 10, 20 or 30 minutes. […] At different times the cells were washed, fixed in 0.05 % glutaraldehyde and antigen presentation measured using proliferation of different autologous TTCF-specific T cell clones. c, AEP pre-processing of TTCF speeds antigen presentation. […] Presentation was measured after 60 minutes of antigen pulsing using EBV B cells. […]

Compound: QQQHLFGSNVTDCSGNFCLFRKKK
- cleaved bond [1]: N630-V631; also recorded: N637-F638

Compound: CCN1C(=O)C=CC1=O [N-ethyl maleimide]
- effect on lysosomal TTCF digestion activity ([2]; concentration not given, data not shown): sensitive

Compound: NC(=O)CI [iodoacetamide]
- sensitivity of lysosomal TTCF digestion activity to inhibitor ([2]; iodoacetamide 1 mM, 4 hours at 37°C, Fig 1a): sensitive

Compound: Z-Ala-Ala-Asn-7-(4-methyl)coumarylamide
- cleaved bond [3]: Asn-7-(4-methyl)coumarylamide
- cleaved bond (AEP): Asn-NHMec, 10 minutes

Compound: CC(C)CC(=O)N[C@H](C(=O)N[C@H](C(=O)N[C@@H](CC(C)C)[C@@H](O)CC(=O)N[C@@H](C)C(=O)N[C@@H](CC(C)C)[C@@H](O)CC(=O)O)C(C)C)C(C)C [pepstatin] (Isovaleryl-VV[Sta]A[Sta]-OH)
- inhibition of lysosomal digestion of TTCF ([2]; inhibitor at 0.1 mg/ml, pH 4.5, 4 hours at 37°C, Fig 1a): could not inhibit

Compound: C[C@H](NC(=O)OCC1c2ccccc2-c2ccccc21)C(=O)N[C@@H](CCC(=O)O)C(=O)N[C@@H](CCC(N)=O)C(=O)N[C@@H](CCCCN)C(N)=O [AEQK] (Fmoc-AEQK-NH2)
- inhibition of processing of TTCF by AEP [4]: did not inhibit
- presentation to most clones (eg AK 5, 90 & 6) at early times [5]: detectable
- antigen presentation by EBV-B cells [6]: virtually no effect

Compound: QQQHLFGSN(CHO)VTDCSGNFCLFR
- cleaved bond [1]: N637-F638
- not cleaved [1]: fragments VTDCSGNFCLFR and QQQHLFGSN(CHO) not observed
